Literature values in patent publication US20110009348A1, “CARBOHYDRATE GEL” (priority 2008, published 2011).

Test system: male cyclists
Conditions: comparison values given in text, source not stated

Structure (SMILES): O=C(CO)[C@@H](O)[C@H](O)[C@H](O)CO [fructose]
- peak oxidation achieved with a single carbohydrate source: ~0.4 g/min
